According to publication PMC6812009, “Covalent Aurora A regulation by the metabolic integrator coenzyme A” (Redox Biology, 2019):

Experiments:
Test in all cases: Kinase profiling screen (radioactive filter-binding assay)
Type in all cases: biochemical
DYRK2 = molecular target: T1, DYRK2 (Homo sapiens, UniProt Q92630); conditions: 100 μM compound, 50 μM ATP; read-out: Kinase activity, % of activity in the absence of inhibitor
T1 sequence (Q92630 1-601): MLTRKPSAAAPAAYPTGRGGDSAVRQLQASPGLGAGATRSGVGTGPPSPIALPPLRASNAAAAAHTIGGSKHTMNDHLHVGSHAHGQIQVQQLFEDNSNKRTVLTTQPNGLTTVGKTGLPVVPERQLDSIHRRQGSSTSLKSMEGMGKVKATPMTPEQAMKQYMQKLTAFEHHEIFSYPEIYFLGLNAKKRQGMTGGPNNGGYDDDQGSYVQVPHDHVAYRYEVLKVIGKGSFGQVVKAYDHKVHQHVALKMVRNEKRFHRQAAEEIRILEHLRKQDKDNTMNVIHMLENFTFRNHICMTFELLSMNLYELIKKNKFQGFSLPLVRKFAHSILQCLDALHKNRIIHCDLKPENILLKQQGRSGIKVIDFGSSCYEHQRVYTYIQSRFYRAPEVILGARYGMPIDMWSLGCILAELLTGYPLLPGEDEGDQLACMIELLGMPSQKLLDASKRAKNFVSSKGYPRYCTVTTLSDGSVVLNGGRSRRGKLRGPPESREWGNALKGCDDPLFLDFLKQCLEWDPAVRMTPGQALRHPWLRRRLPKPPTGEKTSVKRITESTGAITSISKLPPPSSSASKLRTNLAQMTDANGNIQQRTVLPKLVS
Method: (§1) Profiling of 117 protein kinases with CoA, dpCoA and ADP was carried out at the International Centre for Protein Kinase Profiling at the University of Dundee. Each compound was tested in vitro, in duplicate, at 100 μM final concentration using recombinant kinases, model substrates and optimal concentrations of ATP. Bacterially expressed full-length His-Aurora A was used to determine the IC50 value for CoA (in the presence or absence of DTT), dpCoA, ADP and desulfo-CoA. The assay was performed in the presence of 5 μM competing ATP. To examine whether the inhibitory effect of CoA on Aurora A is modulated by TPX2, IC50 values for CoA were also generated in the presence and absence of 1 μg TPX2 (residues 1–43) fragment.

EPH-B3 = molecular target: T2, EPH-B3 (Homo sapiens, UniProt P54753); conditions: 100 μM compound, 20 μM ATP; read-out: Kinase activity, % of activity in the absence of inhibitor
T2 sequence (P54753 34-998): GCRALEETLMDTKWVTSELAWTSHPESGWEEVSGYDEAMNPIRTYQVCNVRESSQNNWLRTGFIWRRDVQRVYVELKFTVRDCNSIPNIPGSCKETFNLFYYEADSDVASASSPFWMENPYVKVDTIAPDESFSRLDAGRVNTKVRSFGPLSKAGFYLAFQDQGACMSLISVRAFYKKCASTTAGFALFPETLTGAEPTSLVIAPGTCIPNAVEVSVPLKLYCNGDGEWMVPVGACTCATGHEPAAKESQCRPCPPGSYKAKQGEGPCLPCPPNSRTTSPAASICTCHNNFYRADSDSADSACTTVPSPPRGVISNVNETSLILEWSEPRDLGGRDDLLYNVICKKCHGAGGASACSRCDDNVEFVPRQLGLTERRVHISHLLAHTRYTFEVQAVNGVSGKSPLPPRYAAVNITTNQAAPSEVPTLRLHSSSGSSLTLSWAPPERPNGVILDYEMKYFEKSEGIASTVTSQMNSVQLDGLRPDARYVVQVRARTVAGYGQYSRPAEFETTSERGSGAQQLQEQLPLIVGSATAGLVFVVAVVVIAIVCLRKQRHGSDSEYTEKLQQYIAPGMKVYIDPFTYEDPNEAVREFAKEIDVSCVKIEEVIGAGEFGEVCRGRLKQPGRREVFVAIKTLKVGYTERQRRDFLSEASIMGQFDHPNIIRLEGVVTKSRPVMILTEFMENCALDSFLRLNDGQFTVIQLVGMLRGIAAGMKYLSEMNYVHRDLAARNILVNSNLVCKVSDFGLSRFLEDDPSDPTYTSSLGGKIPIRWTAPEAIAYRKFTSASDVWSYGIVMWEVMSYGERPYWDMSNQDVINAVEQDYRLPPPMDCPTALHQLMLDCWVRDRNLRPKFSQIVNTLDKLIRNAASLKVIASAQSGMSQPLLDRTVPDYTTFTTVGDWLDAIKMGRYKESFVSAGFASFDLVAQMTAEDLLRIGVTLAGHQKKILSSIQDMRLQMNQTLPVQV
Method: as §1

GSK3β = GSK3β (Homo sapiens, UniProt P49841); conditions: 100 μM compound, 5 μM ATP; read-out: Kinase activity, % of activity in the absence of inhibitor
Method: as §1

MKK2 = MKK2 (Homo sapiens, UniProt P36507); conditions: 100 μM compound, 5 μM ATP; read-out: Kinase activity, % of activity in the absence of inhibitor
Method: as §1

STK33 = STK33 (Homo sapiens, UniProt Q9BYT3); conditions: 100 μM compound, 50 μM ATP; read-out: Kinase activity, % of activity in the absence of inhibitor
Method: as §1

TTK = molecular target: T3, TTK (Homo sapiens, UniProt P33981); conditions: 100 μM compound, 20 μM ATP; read-out: Kinase activity, % of activity in the absence of inhibitor
T3 sequence (P33981 1-857): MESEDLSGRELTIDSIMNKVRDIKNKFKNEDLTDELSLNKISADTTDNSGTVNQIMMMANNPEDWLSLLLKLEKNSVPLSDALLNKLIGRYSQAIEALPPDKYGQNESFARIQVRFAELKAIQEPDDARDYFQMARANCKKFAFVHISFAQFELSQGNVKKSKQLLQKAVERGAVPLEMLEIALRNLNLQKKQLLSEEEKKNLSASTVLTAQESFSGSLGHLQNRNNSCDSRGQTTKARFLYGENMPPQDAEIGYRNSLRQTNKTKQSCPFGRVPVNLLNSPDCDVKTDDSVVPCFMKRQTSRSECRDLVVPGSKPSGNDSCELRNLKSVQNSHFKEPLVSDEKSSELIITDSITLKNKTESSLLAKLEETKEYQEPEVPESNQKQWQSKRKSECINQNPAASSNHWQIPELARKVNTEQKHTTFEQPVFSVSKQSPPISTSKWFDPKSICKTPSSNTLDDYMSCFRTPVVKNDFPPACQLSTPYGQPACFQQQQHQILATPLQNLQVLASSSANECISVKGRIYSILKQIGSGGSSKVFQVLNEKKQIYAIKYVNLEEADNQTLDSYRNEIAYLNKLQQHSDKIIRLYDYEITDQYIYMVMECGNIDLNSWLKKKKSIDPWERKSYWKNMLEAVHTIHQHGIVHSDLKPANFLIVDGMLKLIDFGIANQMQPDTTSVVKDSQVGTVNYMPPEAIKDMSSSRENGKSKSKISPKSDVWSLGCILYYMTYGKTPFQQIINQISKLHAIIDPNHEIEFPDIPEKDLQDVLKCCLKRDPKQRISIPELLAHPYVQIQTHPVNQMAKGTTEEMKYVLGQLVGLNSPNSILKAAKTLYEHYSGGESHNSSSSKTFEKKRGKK
Method: as §1

Chain of GSK3β (P49841 whole entry): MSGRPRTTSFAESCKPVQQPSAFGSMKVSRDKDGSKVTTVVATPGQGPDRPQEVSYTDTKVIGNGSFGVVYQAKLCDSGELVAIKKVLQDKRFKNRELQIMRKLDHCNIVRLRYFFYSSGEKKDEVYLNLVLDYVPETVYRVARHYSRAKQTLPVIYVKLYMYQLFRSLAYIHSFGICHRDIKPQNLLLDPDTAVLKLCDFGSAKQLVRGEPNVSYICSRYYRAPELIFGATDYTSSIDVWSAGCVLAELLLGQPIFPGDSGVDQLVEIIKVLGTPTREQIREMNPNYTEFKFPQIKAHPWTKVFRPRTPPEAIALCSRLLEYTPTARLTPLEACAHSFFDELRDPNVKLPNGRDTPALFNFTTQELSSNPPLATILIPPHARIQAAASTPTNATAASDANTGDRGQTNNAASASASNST
Chain of STK33 (Q9BYT3 whole entry): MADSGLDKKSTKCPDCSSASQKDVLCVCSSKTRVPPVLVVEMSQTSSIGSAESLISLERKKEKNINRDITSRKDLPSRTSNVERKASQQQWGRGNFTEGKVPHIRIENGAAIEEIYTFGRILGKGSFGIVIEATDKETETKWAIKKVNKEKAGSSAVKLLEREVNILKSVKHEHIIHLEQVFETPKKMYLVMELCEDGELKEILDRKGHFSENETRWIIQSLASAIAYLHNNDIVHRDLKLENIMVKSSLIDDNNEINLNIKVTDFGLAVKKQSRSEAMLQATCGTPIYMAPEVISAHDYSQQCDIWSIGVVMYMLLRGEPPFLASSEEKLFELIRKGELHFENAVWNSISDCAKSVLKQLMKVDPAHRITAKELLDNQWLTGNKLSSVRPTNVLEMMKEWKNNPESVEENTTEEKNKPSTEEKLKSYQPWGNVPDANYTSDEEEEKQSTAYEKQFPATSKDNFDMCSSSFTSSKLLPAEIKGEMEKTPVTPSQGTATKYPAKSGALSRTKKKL
Chain of MKK2 (P36507 whole entry): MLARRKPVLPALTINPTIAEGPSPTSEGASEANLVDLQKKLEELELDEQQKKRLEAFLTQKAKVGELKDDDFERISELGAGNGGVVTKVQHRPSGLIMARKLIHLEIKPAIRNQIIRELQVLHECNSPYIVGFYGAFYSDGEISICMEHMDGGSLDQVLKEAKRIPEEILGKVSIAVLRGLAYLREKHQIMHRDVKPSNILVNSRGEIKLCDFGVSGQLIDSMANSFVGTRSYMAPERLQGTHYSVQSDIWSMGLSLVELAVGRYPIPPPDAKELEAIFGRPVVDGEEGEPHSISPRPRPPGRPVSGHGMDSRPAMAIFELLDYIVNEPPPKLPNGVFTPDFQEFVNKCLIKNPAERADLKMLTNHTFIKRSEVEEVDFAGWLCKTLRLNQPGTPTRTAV

Structure (SMILES) | activity at 100 µM (DYRK2) [%] | activity at 100 µM (EPH-B3) [%] | activity at 100 µM (GSK3β) [%] | activity at 100 µM (MKK2) [%] | activity at 100 µM (STK33) [%] | activity at 100 µM (TTK) [%]
Nc1ncnc2c1ncn2C1OC(COP(=O)(O)OP(=O)(O)O)C(O)C1O (stereo not drawn) [ADP] | 42.4 | 18 | 18.2 | 35.4 | 54.6 | 54.7
CC(C)(COP(=O)(O)OP(=O)(O)OCC1OC(n2cnc3c(N)ncnc32)C(O)C1O)C(O)C(=O)NCCC(=O)NCCS (stereo not drawn) [dpCoA, dephospho-CoA] | 77 | 94.4 | 72.1 | 53 | 83.3 | 75.8
CC(C)(COP(=O)(O)OP(=O)(O)OC[C@H]1O[C@@H](n2cnc3c(N)ncnc32)[C@H](O)[C@@H]1OP(=O)(O)O)[C@@H](O)C(=O)NCCC(=O)NCCS [CoA, Coenzyme A] | 102 | 104 | 94.7 | 103 | 71.8 | 101
